Measurements reported in patent US6306392A, “Composition comprising a carnitine and glutathione, useful to increase the absorption of glutathione and synergize its effects” (Sigma-Tau Healthscience S.p.A., priority 1999, dated 2001).

Columns and labels:
[1] = system: increase in liver triglycerides induced by CCl4; assay: Carbon tetrachloride-induced liver intoxication tests (liver triglycerides); type: in vivo; conditions: rats, CCl4 1 ml.kg^-1 i.p. (20% in olive oil), treated three consecutive days before
Protocol: Another indicator of CCl4 toxicity in the liver is provided by the increased hepatic concentration of triglycerides.
The CCl4 intoxication was induced by giving fasting rats an intraperitoneal injection of 1 ml.kg^-1 of a suspension of 20% CCl4 in olive oil. Prior to CCl4 intoxication the rats were treated for three consecutive days with glutathione (G=50 mg/kg), or with propionyl L-carnitine (PC=100 mg/kg), or with yeast containing 10% glutathione (YG=500 mg/kg), or with a combination of amino acids (AA=glutamic acid 50 mg, cysteine 25 mg, glycine 50 mg, magnesium 5 mg). or with the complete combination CC (CC=PC+G+AA), or with the complete yeast combination CYC (CYC=PC+YG+AA). After administration of CCl4, the livers were excised from the decapitated animals and were used to measure the triglyceride concentration according to the method described by Donabedian (Donabedian R. K., Clin. Chem., 20:632, 1974).

[2] = system: hypertriglyceridaemia induced in the rat; assay: Protection against experimental hypertriglyceridaemia (fructose) in the rat; type: in vivo; conditions: fructose 3 g/kg oral; for Hypertriglyceridaemia (blood triglycerides): five hours after, oral treatment three days before and three hours after
Source text: The method used for this test was that described by Carlson (Carlson L. A. V., J. Atheroscl. Res., 8:667, 1968) and modified as described in Atherosclerosis, 16:349, 1972. According to this test oral administration of 3 g/kg of fructose in the rat induces a substantial increase in both liver and serum triglycerides five hours after administration.
The aim of this test was to assess whether the administration of the components of the composition according to the invention, when used alone or in combination, were capable of leading to a reduction in this triglyceride abnormality which is regarded as underlying severe liver dysfunctions as well as atherosclerosis.
To this end, various groups of rats were treated with glutathione (G=50 mg/kg), with propionyl L-carnitine (PC=50 mg/kg), or with yeast containing 10% glutathione (YG=500 mg/kg), or with an amino acid mixture (AA=glutamic acid 50 mg/kg, cysteine 25 mg/kg, glycine 100 mg/kg+magnesium 5 mg/kg), or with a combination of these various components (at the same doses) without yeast (CC) or with yeast (CYC). The treatment was given orally on the three days preceding fructose administration and for three hours after its administration. Five hours after fructose administration all animals were sacrificed and blood samples were used to assay triglycerides according to the method described by Donabedian (Donabedian R. K., Clin. Chem., 20:632, 1974).

[3] = system: glutathione (GSH) concentration; assay: Effects on glutathione (GSH) concentration in young and elderly rats; type: in vivo
Protocol: Since the metabolic and enzymatic activity of glutathione is known to be reduced in elderly rats and this reduction is regarded as one of the causes of ageing, the effect of the administration of the new composition or its individual components on glutathione concentrations in the plasma and liver of young and elderly rats was evaluated.
For this test two different groups of rats were used: young rats (2-3 months) and elderly rats (8-10 months). The glutathione (GSH) concentration was calculated in both groups according to the technique described by Moron (Moron M. S., Biochem. Biophys. Acta, 582:67, 1979) both before the start of the test and after 15 days' daily administration of propionyl L-carnitine (100 mg/kg), glutathione (50 mg/kg), propionyl L-carnitine with glutathione or with yeast containing 10% glutathione (500 mg/kg), amino acids (500 mg/kg) or the combination according to the invention.

[4] = system: glycerol-induced kidney failure; assay: Activity against glycerol-induced nephropathy; type: in vivo, Male Sprague-Dawley rats; conditions: for Protective effect against glycerol-induced kidney lesions (in words): rat; for Urea: rat plasma 24 hours after glycerol injection (10 cc/kg of 50% w/v), treated daily three days before
Protocol: The method used in this test was that described by Young (Young J. H. K., Meth. Find. Exp. Clin. Pharmacol., 13:23, 1991). According to this test, a glycerol injection induces kidney failure and nephropathy in the rat. This method was used to assess the protective effects of the combination according to the invention on the kidney. Male Sprague-Dawley rats were used, which, after being deprived of drinking water for 24 hours, were injected with 10 cc/kg of a 50% w/v solution of glycerol and water. After the injection, the animals thus treated were allowed to drink. After 24 hours, blood samples were taken from the animals and, after centrifuging, the plasma creatinine concentration was assayed (according to the method described by Taussky H. H., Clin. Chem. Acta, 1:210, 1956) and urea by means of reaction with diacetylmonoxime (Henry R. Y., Cannon D. C. Eds., Clinical Chemistry, 2 Ed. Harper & Rowe, London 1974). Propionyl L-carnitine (100 mg/kg), glutathione (50 mg/kg) or yeast containing glutathione (500 mg/kg), amino acids (25 mg/kg each), yeast (500 mg/kg) and a combination of these at the same doses were administered daily on the three days preceding the test.

[5] = system: CCl4-intoxicated liver cell cultures; assay: Carbon tetrachloride (CCl4) intoxication tests on isolated rat liver cells; type: cell-based; conditions: for Toxic effects of carbon tetrachloride (in words): CCl4 10 mmol.L^-1
Source text: The cells used in these tests were isolated rat liver cells after perfusion with collagenase according to the method described by Seglen (Seglen F. O., Method Cell. Biol. Chem. 264:4747, 1989). Approximately 4-6×10^8 viable liver cells were collected, calculated by exclusion of non-viable cells by means of trypan blue.
The cells thus isolated were suspended in 25 cm^2 plastic receptacles in the presence of antibiotics and 10% inactivated fetal calf serum. To the cell suspension thus obtained was added CCl4 (10 mmol.L^-1), glutathione (GSH 20 mg.L^-1), propionyl L-carnitine (100 mg.L^-1) or glutathione combined with propionyl L-carnitine. After a 4-h incubation the percentage of dead cells was estimated by release of lactate dehydrogenase, as described by Casini et al. (Casini et al., J. Biol. Chem., 257:6721, 1982).
The cytological examination of the liver cells was done under both the light and electron microscope after fixation in 3% formalin and paraffin for light microscopy and 3% glutaraldehyde and 1% osmium tetroxide for electron microscopy.

[6] = system: acetaminophen-induced mortality; assay: Acetaminophen (paracetamol) induced toxicity tests; type: in vivo; conditions: mice; for Protection against the mortality induced by acetaminophen (in words): acetaminophen 600 mg/kg
Protocol: Various groups of male mice received oral administrations of 600 mg/kg acetaminophen, which is a dose sufficient to cause death within 24 hours in 50% of the animals thus treated.
At the same time as the acetaminophen administration, one group of animals (group G) were administered glutathione (G) and a second (group YG) were administered yeast containing 10% glutathione (YG); a third group (group PC) were administered propionyl L-carnitine (PC); a fourth group (group AA) were administered a combination of glutamic acid, cysteine, glycine and magnesium (AA); a fifth group (group CC) were administered a first combination according to the invention, called the "complete combination" (CC), consisting of PC+G+AA, while a sixth group (group CYC) were administered a second combination according to the invention, called the "complete yeast combination" (CYC), consisting of PC+YG+AA.
These synergistic effects appear even more marked when the mice are administered a 900 mg/kg acetaminophen dose, which causes the deaths of 100% of the animals. In this case, only administration of the complete yeast combination, CYC, protects more than 50% of the animals treated against death (see Table 2).
The protection against acetaminophen at the dose of 900 mg/kg afforded by the new composition was even more marked when the animals were treated for 7 consecutive days prior to acetaminophen administration with the various components of the combination (see Table 3).

[7] = system: glutathione-depleted rats; assay: Glutathione uptake and concentration in blood of glutathione-depleted (DEM) animals; type: in vivo, Sprague-Dawley male rats; conditions: rats depleted with diethylmaleate (DEM) 1 cc/kg i.p.; oral treatment half an hour after; measured 4 h after
Protocol: To this end, the glutathione content in the blood of a group of Sprague-Dawley male rats was reduced by means of the administration of diethylmaleate (DEM)a depletor of glutathione, according to the technique described by Plummer (Plummer J., Chemical depletion of glutathione "in vivo", Methods in Enzymology, 77:50, 1981). DEM was administered intraperitoneally to fasting rats at the dose of 1 cc/kg. Half an hour after injection of diethylmaleate, glutathione alone (50 mg/kg), or yeast containing 10% glutathione (500 mg/kg), or 50 mg/kg of glutathione together with 500 mg of yeast not containing glutathione were administered orally. Another group of rats received glutathione amino acid precursors (glutamic acid 50 mg/kg, glycine 50 mg/kg, cysteine 50 mg/kg, magnesium 10 mg/kg) or the complete combination according to the invention at the same doses as described here above.
After four hours blood samples were taken from the animals thus treated and the plasma glutathione concentration was measured.

[8] = elderly rats (8-10 months), liver, after 15 days' daily administration, Table 9
[9] = elderly rats (8-10 months), liver, before the start of the test, Table 9
[10] = elderly rats, 15 days, table at the place of Table 10, printed as a repeat of TABLE 9
[11] = elderly rats, time 0, table at the place of Table 10, printed as a repeat of TABLE 9
[12] = young rats (2-3 months), liver, after 15 days' daily administration, Table 9
[13] = young rats (2-3 months), liver, before the start of the test, Table 9
[14] = young rats, 15 days, table at the place of Table 10, printed as a repeat of TABLE 9
[15] = young rats, time 0, table at the place of Table 10, printed as a repeat of TABLE 9
[16] = CCl4-intoxicated liver cell cultures, table at the place of Table 5, printed as a repeat of TABLE 4
[17] = isolated rat liver cells, CCl4 10 mmol.L^-1, 4-h incubation, lactate dehydrogenase release, GSH 20 mg.L^-1, propionyl L-carnitine 100 mg.L^-1, Table 4
[18] = acetaminophen 900 mg/kg, dead/total, Table 2
[19] = acetaminophen 900 mg/kg, dead/total, table at the place of Table 3, printed as a repeat of TABLE 2
[20] = oral acetaminophen 600 mg/kg, substance given at the same time, mortality 24 hours after treatment (dead/total), Table 1

SMILES	Triglycerides (liver) [1]	Efficacy on serum triglyceride levels induced by fructose (in words) [2]	Hypertriglyceridaemia (blood triglycerides) [2]	Glutathione concentration in liver, elderly rats, time 15 days [3, 8]	Glutathione concentration in liver, elderly rats, time 0 [3, 9]	Glutathione concentration in liver, elderly rats, time 15 days [3, 10]	Glutathione concentration in liver, elderly rats, time 0 [3, 11]	Glutathione concentration in liver, young rats, time 15 days [3, 12]	Glutathione concentration in liver, young rats, time 0 [3, 13]	Glutathione concentration in liver, young rats, time 15 days [3, 14]	Glutathione concentration in liver, young rats, time 0 [3, 15]	Protective effect against glycerol-induced kidney lesions (in words) [4]	Urea [4]	% dead cells [5, 16]	Toxic effects of carbon tetrachloride (in words) ([5]; isolated rat liver cells)	% dead cells [5, 17]	Protection against the mortality induced by acetaminophen (in words) [6]	Mortality [6, 18]	Mortality [6, 19]	Mortality [6, 20]	further results
N[C@@H](CCC(=O)N[C@@H](CS)C(=O)NCC(=O)O)C(=O)O [G, N-(N-L-L-γ-glutamyl-cysteinyl) glycine]	18.7 ± 2.1 mg/g	small efficacy	180 ± 5.9 mg/100 ml	9.90 ± 0.76 GSH ng/mg protein	8.82 ± 0.69 GSH ng/mg protein	9.90 ± 0.76 GSH ng/mg protein	8.82 ± 0.69 GSH ng/mg protein	12.85 ± 0.66 GSH ng/mg protein	12.1 ± 0.36 GSH ng/mg protein	12.85 ± 0.66 GSH ng/mg protein	12.1 ± 0.36 GSH ng/mg protein	fairly good protective effect	79.9 ± 9.9 mg/100 ml	55 ± 5%	capable of reducing the toxic effects of carbon tetrachloride	55 ± 5%	partial protection	7/10	7/10	4/10	Glutathione (GSH) concentration in plasma [7]: 0.95 ± 0.88 mg/dL
CCC(=O)O[C@H](CC(=O)[O-])C[N+](C)(C)C [PC, Propionyl L-carnitine]	20.2 ± 1.9 mg/g	small efficacy	185 ± 7.1 mg/100 ml	9.3 ± 0.46 GSH ng/mg protein	7.9 ± 0.51 GSH ng/mg protein	9.3 ± 0.46 GSH ng/mg protein	7.9 ± 0.51 GSH ng/mg protein	12.90 ± 0.71 GSH ng/mg protein	11.25 ± 0.41 GSH ng/mg protein	12.90 ± 0.71 GSH ng/mg protein	11.25 ± 0.41 GSH ng/mg protein	fairly good protective effect	88.5 ± 11.5 mg/100 ml	70 ± 7%	capable of reducing the toxic effects of carbon tetrachloride	70 ± 7%	no such protection	10/10	10/10	6/10	Glutathione (GSH) concentration in plasma [7]: 0.70 ± 0.54 mg/dL
